The text below walks through data of patent publication US20240142437A1, “METHODS TO PREVENT TERATOGENICITY OF IMID LIKE MOLECULES AND IMID BASED DEGRADERS/PROTACS” (DANA-FARBER CANCER INSTITUTE, INC., priority 2017, published 2024).

The subject of data set [1] is IMiD-dependent CRL4^CRBN substrates. Nature of the data set: TMT quantification mass spectrometry proteomics, IMiD-dependent neo-substrates (hESC, Kelly, SK-N-DZ, MM1s cells). The class given is cell-based, human. Conditions: for substrate specificity: proteins degraded across cell lines: hESC, MM1s, Kelly, SK-N-DZ cells expressing detectable levels of the proteins; for number of substrates identified (rank order): proteomics, treatment with different IMiDs. Here is the method: Since degradation is mediated through CRL4^CRBN, and because CRBN expression levels are high in the central nervous system (CNS), the effects of IMiDs were assessed in two different neuroblastoma cell lines, Kelly and SK-N-DZ cells, as well as the commonly used multiple myeloma cell line, MM1s, as a control.
Proteins were precipitated using methanol/chloroform.

For data set [2], the target named is T1, SALL4 (Homo sapiens, UniProt Q96SW2+Q9UJQ4).
T1 construct: endogenous in cells; host or cells: Kelly, SK-N-DZ, HEK293T (western blot)
Nature of the data set: Western blot of SALL4 protein levels in human cell lines. The class given is cell-based. The conditions noted are these: for effect of co-treatment on IMiD-induced SALL4 degradation: co-treatment with thalidomide, 5 μM bortezomib, 5 μM MLN4924, 0.5 μM MLN7243, HEK293T, SK-N-DZ cells; for SALL4 degradation in CRBN−/− cells: CRBN−/− Kelly and HEK293T cells; for SALL4 protein levels by western blot: 24 hours. Here is the method:
HEK293T cells were cultured in DMEM supplemented with 10% dialyzed fetal bovine serum (FBS) and 2 mM L-Glutamine. SK-N-DZ cells were cultured in DMEM supplemented with 10% dialyzed FBS, 0.1 mM Non-Essential Amino Acids (NEAA) and 2 mM L-Glutamine. H661, MM1s and Kelly cells were cultured in RPMI1640 supplemented with 10% dialyzed FBS. H9 hESC cells were cultured in Essential 8 (Gibco) media on Matrigel-coated nunc tissue culture plates.
(§1) Samples were run on 4-20%, AnyKD or 10% (in-vitro ubiqutination assay) SDS-PAGE Gels (Bio-rad), and transferred to PVDF membranes using the iBlot 2.0 dry blotting system (Thermo Fisher Scientific). Membranes were blocked with LiCor blocking solution (LiCor), and incubated with primary antibodies overnight, followed by three washes in LiCor blocking solution and incubation with secondary antibodies for one hour in the dark. After three final washes, the membranes were imaged on a LiCor fluorescent imaging station (LiCor). When Anti-mouse IgG, HRP Antibody was used, after three washes, the membranes were incubated with Amersham ECL Prime Western Blotting Detection Reagent for 1 minute and subjected to imaging by Amersham Imager 600 (GE).

The conditions of data set [3]: cited from earlier work; for plasma half-life (t1/2) / Cmax: typical dose of 200-400 mg, 25 mg, or 2 mg for thalidomide, lenalidomide, or pomalidomide; for Cmax: read-out: maximum plasma concentration (Cmax).
Data set [4] deals with T2, mmSALL4 (Mus musculus, UniProt Q8BX22).
T2 construct: endogenous in cells; host or cells: TC1 mouse embryonic stem cells
Nature of the data set: Western blot of mmSALL4 in mouse embryonic stem cells. Conditions: mESC, increasing concentrations, 24 hours. It is filed as cell-based. On the procedure:
HEK293T cells were cultured in DMEM supplemented with 10% dialyzed fetal bovine serum (FBS) and 2 mM L-Glutamine. SK-N-DZ cells were cultured in DMEM supplemented with 10% dialyzed FBS, 0.1 mM Non-Essential Amino Acids (NEAA) and 2 mM L-Glutamine. H661, MM1s and Kelly cells were cultured in RPMI1640 supplemented with 10% dialyzed FBS. H9 hESC cells were cultured in Essential 8 (Gibco) media on Matrigel-coated nunc tissue culture plates. TC1 mouse embryonic stem cells (mESCs) were adapted to gelatin cultures and fed with KO-DMEM (Gibco) supplemented with 15% stem cell-qualified fetal bovine serum (FBS, Gemini), 2 mM L-glutamine (Gibco), 20 mM HEPES (Gibco), 1 mM sodium pyruvate (Gibco), 0.1 mM of each non-essential amino acids (Gibco), 0.1 mM 2-mercaptoethanol (Sigma), […] mLIF (Gemini).
Cells were treated with compounds as indicated and incubated for 24 hours, or as indicated. Samples were run on 4-20%, AnyKD or 10% (in-vitro ubiqutination assay) SDS-PAGE Gels (Bio-rad), and transferred to PVDF membranes using the iBlot 2.0 dry blotting system (Thermo Fisher Scientific). Membranes were blocked with LiCor blocking solution (LiCor), and incubated with primary antibodies overnight, followed by three washes in LiCor blocking solution and incubation with secondary antibodies for one hour in the dark. […]
On the technique in general: In western blotting, separated proteins are transferred to a membrane and probed.

Data set [5] concerns the target SALL4 ZnF domains and DDB1ΔB-CRBN (Homo sapiens, UniProt Q96SW2+Q9UJQ4). Nature of the data set: TR-FRET in vitro CRBN binding assay. Conditions: SALL4ZnF2; in accordance with cellular potency in degradation of SALL4. Here is the method: Before TR-FRET measurements were conducted, the reactions were incubated for 15 minutes at RT. […] The TR-FRET signal of each data point was extracted by calculating the 520/490 nm ratios.
On the technique in general: In TR-FRET formats the signal depends on donor and acceptor labels being close together.

Data set [6] has as its system Flag-hsSALL4. In words: Western blot of transiently transfected Flag-hsSALL4 (WT or mutant) in Kelly cells. The class given is cell-based, human. Conditions: 24 hours. Here is the method:
as §1, with “Cells were treated with compounds as indicated and incubated for 24 hours, or as indicated. Samples” for “Samples”
(§2) hsCRBN, hsSALL4, mmSALL4 and drSALL4 were PCR amplified and cloned into a pNTM-Flag based vector. Mutagenesis was performed using the Q5 site-directed mutagenesis kit (NEB, USA) with primers designed using the BaseChanger web server (http://nebasechanger.neb.com/).
For transient transfection, 0.2 million cells were seeded per well in a 12 well plate on day one. On day two, cells were transfected with 200-300 ng of plasmid (pNTM-Flag containing gene of interest) using 2 μL of lipofectamine 2000 transfection reagent (Invitrogen). On day three, desired concentration of IMiD was added to each well and cells were harvested after 24 hours for western blot analysis using the protocol described above.

For data set [7], the system named is SALL4 mRNA. In words: Quantitative RT-PCR of total SALL4 mRNA in H9 hES cells. Conditions: 10 μM thalidomide, 24 hours, normalized to GAPDH. The class given is cell-based, human. On the procedure: RNA was isolated using the RNeasy Plus mini kit (Qiagen) and cDNA created by reverse transcription using ProtoScript II reverse transcriptase (NEB) following the manufacturer's instructions. The following primer sets from IDT were used with SYBR Green Master Mix (Applied Biosystems) to probe both GAPDH and total SALL4 levels:
Analysis was performed on a CFX Connect Real-Time PCR System (Bio-Rad) in a white 96-well PCR plate. Relative expression levels were calculated using the […] method.

Data set [8] deals with Flag-mmSALL4 (UniProt Q8BX22+Q96SW2). Nature of the data set: Western blot of transiently transfected Flag-mmSALL4 in Kelly cells. The class given is cell-based, mouse. The conditions noted are these: Y415F, P418S, I419V, L430F, Q435H. On the procedure:
as §1, with “Cells were treated with compounds as indicated and incubated for 24 hours, or as indicated. Samples” for “Samples”
as §2
For transient transfection, 0.2 million cells were seeded per well in a 12 well plate on day one. On day two, cells were transfected with 200-300 ng of plasmid (pNTM-Flag containing gene of interest) using 2 μL of lipofectamine 2000 transfection reagent (Invitrogen). […]

Where [9] appears, read: Kelly, SK-N-DZ, HEK293T and H661 cells, increasing concentrations.

T1 sequence (Q9UJQ4 whole entry): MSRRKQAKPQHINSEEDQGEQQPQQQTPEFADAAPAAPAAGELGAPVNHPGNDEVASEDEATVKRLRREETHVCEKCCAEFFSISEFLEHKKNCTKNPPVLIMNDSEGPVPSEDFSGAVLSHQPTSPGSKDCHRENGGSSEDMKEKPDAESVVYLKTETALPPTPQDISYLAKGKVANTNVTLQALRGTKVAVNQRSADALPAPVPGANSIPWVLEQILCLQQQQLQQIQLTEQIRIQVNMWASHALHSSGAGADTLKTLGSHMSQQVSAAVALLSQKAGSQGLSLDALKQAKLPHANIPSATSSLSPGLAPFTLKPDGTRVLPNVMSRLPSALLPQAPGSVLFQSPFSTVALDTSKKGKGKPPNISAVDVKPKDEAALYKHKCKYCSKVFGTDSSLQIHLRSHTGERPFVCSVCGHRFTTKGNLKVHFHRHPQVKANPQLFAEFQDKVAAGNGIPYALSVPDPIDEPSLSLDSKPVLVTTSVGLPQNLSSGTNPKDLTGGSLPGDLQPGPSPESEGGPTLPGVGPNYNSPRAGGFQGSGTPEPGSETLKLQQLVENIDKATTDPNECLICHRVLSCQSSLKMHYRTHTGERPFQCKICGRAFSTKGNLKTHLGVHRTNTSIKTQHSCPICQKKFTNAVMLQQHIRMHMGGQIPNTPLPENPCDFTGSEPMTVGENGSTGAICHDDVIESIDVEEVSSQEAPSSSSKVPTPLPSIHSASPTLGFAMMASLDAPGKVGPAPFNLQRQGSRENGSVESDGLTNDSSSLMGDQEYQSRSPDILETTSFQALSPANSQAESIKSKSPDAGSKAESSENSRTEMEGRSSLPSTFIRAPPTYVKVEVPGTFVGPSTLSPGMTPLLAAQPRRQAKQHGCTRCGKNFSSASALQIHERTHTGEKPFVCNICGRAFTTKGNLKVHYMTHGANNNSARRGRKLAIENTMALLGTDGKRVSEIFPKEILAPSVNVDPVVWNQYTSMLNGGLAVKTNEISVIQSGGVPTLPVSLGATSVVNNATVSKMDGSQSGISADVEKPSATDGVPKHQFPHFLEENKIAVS
T1 sequence (Q96SW2 whole entry): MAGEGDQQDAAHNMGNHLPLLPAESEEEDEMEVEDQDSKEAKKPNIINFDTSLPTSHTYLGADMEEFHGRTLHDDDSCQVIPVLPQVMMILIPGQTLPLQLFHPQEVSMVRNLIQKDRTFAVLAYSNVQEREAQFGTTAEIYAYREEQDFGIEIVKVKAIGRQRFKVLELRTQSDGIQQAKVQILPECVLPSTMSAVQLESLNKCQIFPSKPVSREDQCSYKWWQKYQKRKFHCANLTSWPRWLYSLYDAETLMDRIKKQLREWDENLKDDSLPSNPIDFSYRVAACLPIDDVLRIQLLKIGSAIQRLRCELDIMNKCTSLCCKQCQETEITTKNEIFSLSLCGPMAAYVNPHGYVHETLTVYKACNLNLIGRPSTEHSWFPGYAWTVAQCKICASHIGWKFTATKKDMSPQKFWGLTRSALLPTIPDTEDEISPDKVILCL
T1 sequence (Q16531 2-1140 partner limits assumed): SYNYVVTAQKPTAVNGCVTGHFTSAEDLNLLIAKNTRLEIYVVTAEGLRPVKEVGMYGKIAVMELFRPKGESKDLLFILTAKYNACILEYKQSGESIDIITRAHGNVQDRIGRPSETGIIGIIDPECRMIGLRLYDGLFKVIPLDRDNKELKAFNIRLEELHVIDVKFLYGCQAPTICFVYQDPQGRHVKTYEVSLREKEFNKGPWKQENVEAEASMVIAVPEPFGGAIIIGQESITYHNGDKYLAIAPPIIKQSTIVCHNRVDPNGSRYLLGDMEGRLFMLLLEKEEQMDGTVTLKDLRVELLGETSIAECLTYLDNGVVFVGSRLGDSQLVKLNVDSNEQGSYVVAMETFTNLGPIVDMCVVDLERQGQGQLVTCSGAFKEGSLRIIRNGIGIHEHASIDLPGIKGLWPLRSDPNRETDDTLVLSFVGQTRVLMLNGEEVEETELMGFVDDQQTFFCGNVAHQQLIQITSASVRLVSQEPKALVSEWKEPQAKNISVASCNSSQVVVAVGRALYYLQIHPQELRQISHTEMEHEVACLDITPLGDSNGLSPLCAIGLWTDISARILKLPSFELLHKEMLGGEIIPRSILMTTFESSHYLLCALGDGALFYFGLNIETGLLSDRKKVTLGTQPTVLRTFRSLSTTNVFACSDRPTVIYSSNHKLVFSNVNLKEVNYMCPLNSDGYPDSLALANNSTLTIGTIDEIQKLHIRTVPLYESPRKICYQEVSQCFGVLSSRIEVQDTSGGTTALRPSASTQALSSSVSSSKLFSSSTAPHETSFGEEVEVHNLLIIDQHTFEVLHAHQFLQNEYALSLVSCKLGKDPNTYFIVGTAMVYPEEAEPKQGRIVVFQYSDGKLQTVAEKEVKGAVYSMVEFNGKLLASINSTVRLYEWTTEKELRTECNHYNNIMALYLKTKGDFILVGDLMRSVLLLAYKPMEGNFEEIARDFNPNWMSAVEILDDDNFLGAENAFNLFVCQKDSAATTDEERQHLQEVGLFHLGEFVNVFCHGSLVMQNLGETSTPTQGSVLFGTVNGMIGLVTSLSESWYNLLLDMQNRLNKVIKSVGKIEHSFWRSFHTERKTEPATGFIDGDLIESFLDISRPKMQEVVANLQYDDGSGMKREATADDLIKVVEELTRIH
SALL4 ZnF domains and DDB1ΔB-CRBN, sequence (Q96SW2 whole entry, stated change not applied, the tested form may be a part): as the sequence (Q96SW2 whole entry) above
SALL4 ZnF domains and DDB1ΔB-CRBN, sequence (Q9UJQ4 402-436, stated change not applied): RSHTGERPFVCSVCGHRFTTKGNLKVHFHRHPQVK
Flag-mmSALL4, sequence (Q8BX22 whole entry): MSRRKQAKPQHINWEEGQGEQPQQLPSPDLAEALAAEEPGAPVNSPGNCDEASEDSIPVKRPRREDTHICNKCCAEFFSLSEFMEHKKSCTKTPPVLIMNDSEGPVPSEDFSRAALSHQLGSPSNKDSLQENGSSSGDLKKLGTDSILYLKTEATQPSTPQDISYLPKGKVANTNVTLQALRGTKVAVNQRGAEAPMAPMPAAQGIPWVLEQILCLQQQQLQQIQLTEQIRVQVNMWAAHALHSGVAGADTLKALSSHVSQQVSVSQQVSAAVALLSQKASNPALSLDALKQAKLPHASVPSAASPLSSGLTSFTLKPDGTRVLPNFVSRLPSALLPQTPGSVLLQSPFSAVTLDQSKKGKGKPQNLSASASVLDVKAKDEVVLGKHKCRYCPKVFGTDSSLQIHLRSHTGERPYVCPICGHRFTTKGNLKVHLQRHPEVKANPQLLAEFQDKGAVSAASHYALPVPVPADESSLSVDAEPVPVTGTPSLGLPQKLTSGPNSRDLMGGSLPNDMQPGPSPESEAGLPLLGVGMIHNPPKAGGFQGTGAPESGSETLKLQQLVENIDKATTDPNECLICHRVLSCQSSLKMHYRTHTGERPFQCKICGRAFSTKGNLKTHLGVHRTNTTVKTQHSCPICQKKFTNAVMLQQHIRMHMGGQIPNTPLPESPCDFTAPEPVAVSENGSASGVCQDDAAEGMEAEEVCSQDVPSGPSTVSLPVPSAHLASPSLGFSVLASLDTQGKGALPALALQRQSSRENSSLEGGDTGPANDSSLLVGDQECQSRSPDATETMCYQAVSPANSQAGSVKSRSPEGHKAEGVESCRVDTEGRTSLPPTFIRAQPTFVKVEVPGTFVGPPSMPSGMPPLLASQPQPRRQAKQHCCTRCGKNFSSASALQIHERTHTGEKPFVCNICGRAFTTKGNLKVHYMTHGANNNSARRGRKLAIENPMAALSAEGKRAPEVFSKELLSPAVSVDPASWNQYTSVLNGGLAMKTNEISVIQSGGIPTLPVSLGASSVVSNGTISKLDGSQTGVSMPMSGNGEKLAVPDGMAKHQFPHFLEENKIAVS
Flag-mmSALL4, sequence (Q96SW2 whole entry): as the sequence (Q96SW2 whole entry) above
Flag-mmSALL4, sequence (Q16531 2-1140 partner limits assumed): as the sequence (Q16531 2-1140 partner limits assumed) above

As for `O=C1CC[C@H](N2Cc3c(OCc4ccc(CN5CCOCC5)cc4)cccc3C2=O)C(=O)N1` [CC-220], in data set [1] (SK-N-DZ cells, 0.1 μM CC-220, 1 μM dBET57, 5 hours (FIG. 6C)), the “degradation of ZnF targets including SALL4 (proteomics)” value is “effective inducers of ZnF targets including SALL4 degradation”.
As to `NS(=O)(=O)OC[C@@H]1C[C@@H](n2ccc3c(N[C@H]4CCc5ccccc54)ncnc32)C[C@@H]1O` [MLN4924], the “effect of co-treatment on IMiD-induced SALL4 degradation” value in data set [2] (Kelly) is reported as “abrogated”. In addition, in data set [1] (SK-N-DZ cells, 1 μM pomalidomide + 5 μM MLN4924, 5 hours), the “effect of co-treatment on IMiD-induced degradation of targets (rescue proteomics)” value is given as “fully abrogated IMiD-induced degradation of targets”.
Turning to `NS(=O)(=O)OC[C@H]1C[C@@H](Nc2ccnc3cc(-c4cccc(SC(F)(F)F)c4)nn23)[C@H](O)[C@@H]1O` [MLN7243], the “effect of co-treatment on IMiD-induced SALL4 degradation” value in data set [2] (Kelly) is reported as “abrogated”.
The same measure, in the same setting: the value for `CC(C)C[C@H](NC(=O)[C@H](Cc1ccccc1)NC(=O)c1cnccn1)B(O)O` [bortezomib] was “abrogated”.
With `Nc1cccc2c1CN(C1CCC(=O)NC1=O)C2=O` (stereo not shown) [lenalidomide], the “plasma half-life (t1/2)” value in data set [3] was about 3 h.
In the case of `Nc1cccc2c1C(=O)N(C1CCC(=O)NC1=O)C2=O` (stereo not shown) [pomalidomide], in data set [4], the “degradation of mmSALL4” value was “does not promote degradation of mmSALL4”. Further, in data set [5], the “rank order in binding observed with ZnF2” value is given as “Pom >Thal>>Len”. The “SALL4 degradation in CRBN−/− cells” value in data set [2] (increasing concentrations) was “no degradation of SALL4 was observed”. Besides, in data set [2] (H9 hESC, increasing doses), the “SALL4 protein levels by western blot” value is given as “dose dependent decrease in protein levels”. Besides, the “earliest time of SALL4 degradation post-treatment” value in data set [2] (Kelly cells, 1 or 5 μM pomalidomide) was determined as 4 h. In addition, in data set [2] (setting [9]), the “SALL4 protein levels by western blot” value is listed as “dose-dependent decrease”. Further, in data set [1] (H9 hESC, 5 hours, 5 μM lenalidomide, 1 μM pomalidomide), the “further proteins degraded in proteomics” value was “degradation of additional targets including the previously characterized zinc finger protein ZFP91 (An et al., 2017), and the largely uncharacterized proteins ZBTB39, FAM83F, WIZ, RAB28, and DTWD1”. Moreover, in data set [1], the “substrate specificity: proteins degraded across cell lines” value is “robust degradation of ZBTB39, ZFP91, DTWD1, and ZNF653”; the “number of substrates identified (rank order)” value is listed as “Thal <Len<<Pom”. Further, in data set [3], the “plasma half-life (t1/2)” value was about 9 h and the Cmax is 0.05 µM.
With `O=C1CCC(N2C(=O)c3ccccc3C2=O)C(=O)N1` (stereo not shown) [thalidomide, 2-(2,6-dioxopiperidin-3-yl)-1H-isoindole-1,3(2H)-dione], the “degradation of mmSALL4” value in data set [4] is reported as “does not promote degradation of mmSALL4”. Moreover, in data set [6], the “degradation of wild type Flag-hsSALL4” value is on record as “readily degraded”. In addition, in data set [6] (thalidomide), the “degradation of Flag-SALL4 with G416A or G416N mutations in ZnF2” value is on record as “rendered SALL4 stable” and the “degradation of Flag-SALL4 with G600A or G600N mutations in ZnF4” value is recorded as “readily degraded”. The “rank order in binding observed with ZnF2” value in data set [5] was “Pom >Thal>>Len”. Also, the “SALL4 degradation at plasma-relevant concentration” value in data set [2] (10 μM) is on record as “effective degradation of SALL4”. Moreover, the “SALL4 degradation in CRBN−/− cells” value in data set [2] (increasing concentrations) is “no degradation of SALL4 was observed”. Further, the “SALL4 protein levels by western blot” value in data set [2] (H9 hESC, increasing doses) was “dose dependent decrease in protein levels”. In addition, the “SALL4 protein levels by western blot” value in data set [2] (setting [9]) is given as “dose-dependent decrease”. Besides, in data set [1], the “substrate specificity: proteins degraded across cell lines” value is “robust degradation of the zinc finger transcription factors ZNF692, SALL4, and the ubiquitin ligase RNF166”; the “number of substrates identified (rank order)” value is reported as “Thal <Len<<Pom”. Also, the “plasma concentration in humans” value in data set [3] (human, in vivo) is at most 10 µM. Besides, in data set [3], the “plasma half-life (t1/2)” value was 6 to 8 h and the Cmax was 5 to 10 µM. In data set [7], the “SALL4 mRNA level” value is listed as “does not reduce the level of SALL4 mRNA, but rather upregulates SALL4 mRNA”. The “SALL4 mRNA level” value in data set [7] (listed as Thalidomide) is recorded as “did not influence the expression of SALL4 mRNA”. In addition, in data set [8], the “degradation of mmSALL4 with humanized ZnF2 domain” value is listed as “degradation was induced”.
